Assay type in all cases: in vivo
The subject of data set [1] is Matricaria recutita L. (wild chamomile). The data set is described as follows: Field trial in winter oilseed rape, visual weed control, MATCH. To be noted: 112 to 188 Days after Application. The procedure: (§1) Field trials were conducted in winter oilseed rape crop using small plot research methodology. The oilseed rape crop was grown using normal cultural practices for the respective area of the trials, using varieties, fertilization and maintenance to ensure normal growth of the crop and the weeds. Plot size was 2 meters (m) wide by 10 m long with 4 replicates by treatment. All treatments were applied preemergence to early postemergence to the weeds using a compressed air backpack sprayer delivering 200 liters per hectare (L/ha) spray volume. Commercially available product of propyzamide/pronamide was mixed with a formulation of aminopyralid potassium at appropriately formulated product rates to achieve the desired rates based on a unit area of application (hectare) to achieve the desired rates as shown. Treatments consisted of propyzamide applied alone, as well as aminopyralid applied alone, and in combination, to measure herbicidal weed control and any synergistic interactions. Treatments were rated at different intervals from treatment to time of evaluation up to the following year when the crop starts to grow again in the spring. The weed efficacy was compared to the untreated control plants. Visual weed control was scored on a scale of 0 to 100 percent where 0 corresponds to no injury and 100 corresponds to complete kill. […]

Data set [2] concerns Papaver rhoeas L. (corn poppy). The data set is described as follows: Field trial in winter oilseed rape, visual weed control, PAPRH. To be noted: for % Control PAPRH (1) Ob: France, 112 to 188 Days after Application; for % Control PAPRH (2) Ob: Great Britain. The procedure:
(§2) Field trials were conducted in winter oilseed rape crop using small plot research methodology. The oilseed rape crop was grown using normal cultural practices for the respective area of the trials, using varieties, fertilization and maintenance to ensure normal growth of the crop and the weeds. Plot size was 2 meters (m) wide by 10 m long with 4 replicates by treatment. All treatments were applied preemergence to early postemergence to the weeds using a compressed air backpack sprayer delivering 200 liters per hectare (L/ha) spray volume. Commercially available product of propyzamide/pronamide was mixed with a formulation of aminopyralid potassium at appropriately formulated product rates to achieve the desired rates based on a unit area of application (hectare) to achieve the desired rates as shown. Treatments consisted of propyzamide applied alone, as well as aminopyralid applied alone, and in combination, to measure herbicidal weed control and any synergistic interactions. Treatments were rated at different intervals from treatment to time of evaluation up to the following year when the crop starts to grow again in the spring. The weed efficacy was compared to the untreated control plants. Visual weed control was scored on a scale of 0 to 100 percent where 0 corresponds to no injury and 100 corresponds to complete kill. Colby's equation was used to determine the herbicidal effects expected from the mixtures (Colby, S. R. […] Calculation of the synergistic and antagonistic response of herbicide combinations.). The following equation was used to calculate the expected activity of mixtures containing two active ingredients, A and B: […] A=observed efficacy of active ingredient A at the same concentration as used in the mixture; B=observed efficacy of active ingredient B at the same concentration as used in the mixture.

Data set [3] has as its system Viola arvensis Murr. (field violet). The data set is described as follows: Field trial in winter oilseed rape, visual weed control, VIOAR. The following applies: 112 to 188 Days after Application. As to the method:
as §2

The subject of data set [4] is Matricaria spp L. (chamomile species). The data set is described as follows: Field trial in winter oilseed rape, visual weed control, MATSS. The following applies: 93 to 188 Days after Application. As to the method: as §1
For data set [5], the system named is Alopecurus myosuroides Huds. (blackgrass). The data set is described as follows: Field trial in winter oilseed rape, visual weed control, ALOMY. The following applies: 93 to 200 Days after Application. The procedure: as §2
Data set [6] concerns Poa annua L. (annual bluegrass). The data set is described as follows: Field trial in winter oilseed rape, visual weed control, POANN. The following applies: Great Britain, 93 to 200 Days after Application. As to the method: as §2
Data set [7] relates to Brassica napus L. ssp. Napus (winter oil seed rape). Nature of the data set: Field trial, crop tolerance (crop injury) of winter oilseed rape, BRSNW. The following applies: 167 Days after Application. The procedure: as §2

Molecules are shown by their SMILES.

For the compound `Nc1cc(Cl)nc(C(=O)O)c1Cl` [Aminopyralid, 4-amino-3,6-dichloro-2-pyridinecarboxylic acid], in data set [1] (aminopyralid 6 g ae/ha alone), the “% Control MATCH Ob” value is reported as 80%. Further, the “% Control PAPRH (1) Ob” value amounted to 48% in data set [2] (aminopyralid 6 g ae/ha alone) and 68% in data set [2] (aminopyralid 8 g ae/ha alone). For the same compound, the “% Control PAPRH (2) Ob” value in data set [2] (aminopyralid 6 g ae/ha alone, 93 to 188 Days after Application (Table 2)) is on record as 48%; in data set [2] (aminopyralid 6 g ae/ha alone, 112 to 188 Days after Application (Table 1)), 0%; in data set [2] (aminopyralid 8 g ae/ha alone, 93 to 188 Days after Application (Table 2)) it was 68%; in data set [2] (aminopyralid 8 g ae/ha alone, 112 to 188 Days after Application (Table 1)), 75%. The “% Control VIOAR Ob” value in data set [3] (aminopyralid 6 g ae/ha alone) and in data set [3] (aminopyralid 8 g ae/ha alone) was 0% in each case. In data set [4] (aminopyralid 10 g ae/ha alone), the “% Control MATSS Ob” value is reported as 48%. Moreover, the “% Control ALOMY Ob” value in data set [5] (aminopyralid 6 g ae/ha alone) and in data set [5] (aminopyralid 8 g ae/ha alone) was 0% each time. Also, the “% Control POANN (1) Ob” value in data set [6] (aminopyralid 6 g ae/ha alone) and in data set [6] (aminopyralid 8 g ae/ha alone) was 0% in each case. Also, the “% Control POANN (2) Ob” value in data set [6] (aminopyralid 6 g ae/ha alone) and in data set [6] (aminopyralid 8 g ae/ha alone) was 0% throughout. The “% Crop Injury BRSNW Ob” value in data set [7] (aminopyralid 6 g ae/ha alone) was determined as 23%; in data set [7] (aminopyralid 8 g ae/ha alone) it was 22%.
As for `C#CC(C)(C)NC(=O)c1cc(Cl)cc(Cl)c1` [Propyzamide, 3,5-dichloro-N-(1,1-dimethylpropynyl)benzamide], the “% Control MATCH Ob” value in data set [1] (propyzamide 750 g ai/ha alone) amounted to 0%. Moreover, the “% Control PAPRH (1) Ob” value in data set [2] (propyzamide 750 g ai/ha alone) was determined as 18%. In addition, the “% Control PAPRH (2) Ob” value in data set [2] (propyzamide 750 g ai/ha alone, 112 to 188 Days after Application (Table 1)) turned out to be 0%; in data set [2] (propyzamide 840 g ai/ha alone, 93 to 188 Days after Application (Table 2)), 11%. In data set [3] (propyzamide 750 g ai/ha alone), the “% Control VIOAR Ob” value turned out to be 27%. Also, the “% Control MATSS Ob” value in data set [4] (propyzamide 750 g ai/ha alone) amounted to 7%. Moreover, in data set [5] (propyzamide 750 g ai/ha alone), the “% Control ALOMY Ob” value came to 75%. Besides, the “% Control POANN (1) Ob” value in data set [6] (propyzamide 750 g ai/ha alone) and in data set [6] (propyzamide 840 g ai/ha alone) was 22% throughout. In data set [6] (propyzamide 750 g ai/ha alone), the “% Control POANN (2) Ob” value amounted to 22%. Also, the “% Crop Injury BRSNW Ob” value amounted to 0% in data set [7] (propyzamide 750 g ai/ha alone) and 2% in data set [7] (propyzamide 840 g ai/ha alone).

Values taken from patent US8609587B2, “Synergistic herbicidal compositions containing propyzamide and aminopyralid” (Dow AgroSciences, LLC., priority 2010, dated 2013).
